From patent publication EP0877740B1, “THIOL DERIVATIVES WITH METALLOPEPTIDASE INHIBITORY ACTIVITY” (ZAMBON GROUP S.p.A., priority 1995, dated 1997)

Molecular target: T1, ACE (Oryctolagus cuniculus, UniProt P12822)
T1 construct: ACE (250 mU/ml purified by lung rabbit, EC 3.4.15.1 SIGMA); purchased SIGMA; host or cells: rabbit lung (tissue-purified)
T1 sequence (P12822 34-1310): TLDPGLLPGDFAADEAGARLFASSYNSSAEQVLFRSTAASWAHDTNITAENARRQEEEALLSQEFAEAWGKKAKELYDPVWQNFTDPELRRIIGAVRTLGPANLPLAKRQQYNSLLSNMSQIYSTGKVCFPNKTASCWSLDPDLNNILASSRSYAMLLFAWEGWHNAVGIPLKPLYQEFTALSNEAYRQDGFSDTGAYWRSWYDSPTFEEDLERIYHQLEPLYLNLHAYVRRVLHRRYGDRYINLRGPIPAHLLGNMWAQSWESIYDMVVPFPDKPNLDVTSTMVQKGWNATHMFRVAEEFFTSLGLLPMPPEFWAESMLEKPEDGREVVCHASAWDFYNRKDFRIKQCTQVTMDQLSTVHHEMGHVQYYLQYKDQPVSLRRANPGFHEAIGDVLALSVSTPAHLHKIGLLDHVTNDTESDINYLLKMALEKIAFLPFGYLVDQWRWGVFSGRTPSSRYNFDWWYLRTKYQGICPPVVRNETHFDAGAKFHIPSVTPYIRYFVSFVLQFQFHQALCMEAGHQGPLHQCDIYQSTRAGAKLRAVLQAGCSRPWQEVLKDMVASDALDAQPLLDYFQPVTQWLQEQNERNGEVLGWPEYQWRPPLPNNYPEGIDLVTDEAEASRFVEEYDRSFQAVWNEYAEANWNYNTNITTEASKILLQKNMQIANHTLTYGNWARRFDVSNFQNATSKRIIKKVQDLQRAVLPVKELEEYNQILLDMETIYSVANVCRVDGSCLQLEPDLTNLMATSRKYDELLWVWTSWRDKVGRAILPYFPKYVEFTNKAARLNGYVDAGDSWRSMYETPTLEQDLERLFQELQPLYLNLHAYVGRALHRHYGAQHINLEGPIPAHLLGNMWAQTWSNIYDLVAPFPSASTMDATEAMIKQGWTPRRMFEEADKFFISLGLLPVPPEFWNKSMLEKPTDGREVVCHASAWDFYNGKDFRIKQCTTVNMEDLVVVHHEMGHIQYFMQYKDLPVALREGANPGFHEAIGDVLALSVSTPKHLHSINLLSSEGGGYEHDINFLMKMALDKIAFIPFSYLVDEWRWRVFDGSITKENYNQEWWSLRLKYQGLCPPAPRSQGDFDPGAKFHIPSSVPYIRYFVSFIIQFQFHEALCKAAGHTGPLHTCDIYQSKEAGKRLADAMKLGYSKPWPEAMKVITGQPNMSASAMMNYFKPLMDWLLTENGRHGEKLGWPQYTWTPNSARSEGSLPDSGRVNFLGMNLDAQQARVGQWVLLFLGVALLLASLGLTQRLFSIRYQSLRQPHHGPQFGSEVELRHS
Experiment: In vitro ACE-inhibitory activity (FAPGG substrate, spectrophotometric)
Assay type: biochemical
Conditions: ACE purified by lung rabbit, FAPGG 0.8 mM, 37°C
Method: […] of ACE (250 mU/ml purified by lung rabbit, EC 3.4.15.1 SIGMA) were preincubated with 50 µl of the compound of formula I or of the reference compound or related vehicle in thermostated cuvettes at 37°C.
The reaction was started by adding furylacryloylphenylalanylglycylglycine 0.8 mM (FAPGG-SIGMA).
Contemporaneously, by using a Beckman DU-50 spectrophotometer provided with a program for calculating delta A/minutes and regression coefficients of the enzyme kinetics curves, the absorbance at 340 nm was recorded in continuo for 5 minutes.
The percentage of the enzyme inhibition in the preparations treated with the compounds of formula I or with the comparative compounds with respect to the untreated preparations was expressed as IC50 (nM) value.

IC50: 3.2 nM
Compound: O=C(N[C@@H](Cc1ccc(-c2nccs2)cc1)C(=O)O)[C@@H](CS)Cc1ccccc1 [Compound 16, N-[(2S)-3-mercapto-2-phenylmethylpropionyl]-4-(2-thiazolyl)-L-phenylalanine]
